Measurements: patent publication US7799821B2, “Therapeutic compounds” (Allergan, Inc., priority 2004, dated 2010)

Tests used:
Type in all cases: cell-based
hEP3A/Gqi5 = target: T1, hEP3A/Gqi5 (Homo sapiens, UniProt P43115); test: FLIPR calcium signal, hEP3A; conditions: FLIPR Ca2+ signal, HEK-293(EBNA); read-out: FUNCTIONAL EC50 HEP3A
T1 construct: expressed in transfected cells; host or cells: HEK-293(EBNA)
T1 sequence (P43115 1-390): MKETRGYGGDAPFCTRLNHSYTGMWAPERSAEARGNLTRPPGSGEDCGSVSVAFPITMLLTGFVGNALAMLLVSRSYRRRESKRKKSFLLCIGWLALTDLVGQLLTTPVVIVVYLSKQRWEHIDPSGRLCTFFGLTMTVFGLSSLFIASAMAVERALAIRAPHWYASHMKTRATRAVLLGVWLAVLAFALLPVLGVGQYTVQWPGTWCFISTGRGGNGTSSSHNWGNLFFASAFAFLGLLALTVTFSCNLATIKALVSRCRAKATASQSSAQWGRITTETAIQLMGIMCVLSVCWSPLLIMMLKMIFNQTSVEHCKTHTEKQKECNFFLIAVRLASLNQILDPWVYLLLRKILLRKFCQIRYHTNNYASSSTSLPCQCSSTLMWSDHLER
Protocol: (§1) HEK-293(EBNA) cells, stably expressing one type or subtype of recombinant human prostaglandin receptors (prostaglandin receptors expressed: hDP/Gqs5; hEP1; hEP2/Gqs5; hEP3A/Gqi5; hEP4/Gqs5; hFP; hIP; hTP), were cultured in 100 mm culture dishes in high-glucose DMEM medium containing 10% fetal bovine serum, 2 mM 1-glutamine, 250 μg/ml geneticin (G418) and 200 μg/ml hygromycin B as selection markers, and 100 units/ml penicillin G, 100 μg/ml streptomycin and 0.25 μg/ml amphotericin B. • (b) Calcium Signal Studies on the FLIPR™
(§2) Cells were seeded at a density of 5×10^4 cells per well in Biocoat® Poly-D-lysine-coated black-wall, clear-bottom 96-well plates (Becton-Dickinson) and allowed to attach overnight in an incubator at 37° C. Cells were then washed two times with HBSS-HEPES buffer (Hanks Balanced Salt Solution without bicarbonate and phenol red, 20 mM HEPES, pH 7.4) using a Denley Cellwash plate washer (Labsystems). After 45 minutes of dye-loading in the dark, using the calcium-sensitive dye Fluo-4 AM at a final concentration of 2 μM, plates were washed four times with HBSS-HEPES buffer to remove excess dye leaving 100 μl in each well. Plates were re-equilibrated to 37° C. for a few minutes.
(§3) Cells were excited with an Argon laser at 488 nm, and emission was measured through a 510-570 nm bandwidth emission filter (FLIPR™, Molecular Devices, Sunnyvale, Calif.). Drug solution was added in a 50 μl volume to each well to give the desired final concentration. The peak increase in fluorescence intensity was recorded for each well. On each plate, four wells each served as negative (HBSS-HEPES buffer) and positive controls (standard agonists: BW245C (hDP); PGE2 (hEP1; hEP2/Gqs5; hEP3A/Gqi5; hEP4/Gqs5); PGF2α (hFP); carbacyclin (hIP); U-46619 (hTP), depending on receptor). The peak fluorescence change in each drug-containing well was then expressed relative to the controls.
(§4) Compounds were tested in a high-throughput (HTS) or concentration-response (CoRe) format. In the HTS format, forty-four compounds per plate were examined in duplicates at a concentration of 10^−5 M. To generate concentration-response curves, four compounds per plate were tested in duplicates in a concentration range between 10^−5 and 10^−11 M. The duplicate values were averaged. In either, HTS or CoRe format each compound was tested on at least 3 separate plates using cells from different passages to give an n≧3.

hEP4/Gqs5 = target: T2, hEP4/Gqs5 (Homo sapiens, UniProt P35408); test: FLIPR calcium signal, hEP4; conditions: FLIPR Ca2+ signal, HEK-293(EBNA); read-out: FUNCTIONAL EC50 HEP4
T2 construct: expressed in transfected cells; host or cells: HEK-293(EBNA)
T2 sequence (P35408 whole entry): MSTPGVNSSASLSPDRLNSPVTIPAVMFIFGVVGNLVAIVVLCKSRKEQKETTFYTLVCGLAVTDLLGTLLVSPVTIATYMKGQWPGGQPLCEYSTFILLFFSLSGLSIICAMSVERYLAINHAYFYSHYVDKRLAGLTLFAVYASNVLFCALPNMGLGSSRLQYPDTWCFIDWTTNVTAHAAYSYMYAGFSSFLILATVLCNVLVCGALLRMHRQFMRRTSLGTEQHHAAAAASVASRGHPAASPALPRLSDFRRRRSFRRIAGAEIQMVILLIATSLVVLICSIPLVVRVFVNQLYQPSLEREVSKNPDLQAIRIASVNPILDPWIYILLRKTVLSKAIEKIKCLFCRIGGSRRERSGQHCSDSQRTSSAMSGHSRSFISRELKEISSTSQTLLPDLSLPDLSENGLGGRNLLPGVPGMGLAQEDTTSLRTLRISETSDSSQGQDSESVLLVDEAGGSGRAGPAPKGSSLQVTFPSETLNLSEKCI
Outline: (§5)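 HEK-293(EBNA) cells stably expressing the recombinant human receptor were loaded with 2 μM Fluo-4 AM for 45 min and read on FLIPR at 37° C in HBSS-HEPES pH 7.4. Peak fluorescence rise was expressed relative to buffer and standard agonist controls (BW245C, PGE2 or U-46619 by receptor); compounds were run 10^−5 to 10^−11 M in duplicate, n≧3.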

hDP/Gqs5 = target: T3, hDP/Gqs5 (Homo sapiens, UniProt Q13258); test: FLIPR calcium signal, hDP; conditions: FLIPR Ca2+ signal, HEK-293(EBNA); read-out: FUNCTIONAL EC50 HDP
T3 construct: expressed in transfected cells; host or cells: HEK-293(EBNA)
T3 sequence (Q13258 1-359): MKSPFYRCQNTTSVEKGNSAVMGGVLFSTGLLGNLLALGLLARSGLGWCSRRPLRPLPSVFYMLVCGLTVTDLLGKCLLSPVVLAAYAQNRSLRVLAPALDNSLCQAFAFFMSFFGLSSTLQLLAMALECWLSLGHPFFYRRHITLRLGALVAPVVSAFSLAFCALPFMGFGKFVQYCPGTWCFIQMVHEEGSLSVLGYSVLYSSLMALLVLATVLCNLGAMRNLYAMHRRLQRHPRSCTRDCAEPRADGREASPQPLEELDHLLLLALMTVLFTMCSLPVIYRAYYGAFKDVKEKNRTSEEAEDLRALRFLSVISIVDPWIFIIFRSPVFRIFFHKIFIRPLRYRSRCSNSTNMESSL
Protocol: as §1, §2, §3, §4

hIP = target: T4, hIP (Homo sapiens, UniProt P43119); test: FLIPR calcium signal, hIP; conditions: FLIPR Ca2+ signal, HEK-293(EBNA); read-out: FUNCTIONAL EC50 HIP
T4 construct: expressed in transfected cells; host or cells: HEK-293(EBNA)
T4 sequence (P43119 whole entry): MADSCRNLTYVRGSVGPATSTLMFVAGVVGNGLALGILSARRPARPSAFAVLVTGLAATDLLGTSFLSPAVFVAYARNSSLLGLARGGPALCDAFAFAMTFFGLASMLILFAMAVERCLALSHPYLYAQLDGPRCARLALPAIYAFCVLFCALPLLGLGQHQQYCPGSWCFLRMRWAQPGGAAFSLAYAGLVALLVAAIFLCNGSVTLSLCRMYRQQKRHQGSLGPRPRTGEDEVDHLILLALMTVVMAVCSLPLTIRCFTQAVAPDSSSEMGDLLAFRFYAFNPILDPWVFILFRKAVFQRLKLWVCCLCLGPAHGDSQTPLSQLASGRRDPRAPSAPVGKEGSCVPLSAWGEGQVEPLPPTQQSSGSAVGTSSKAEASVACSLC
Protocol: as §1, §2, §3, §4

hEP2/Gqs5 = target: T5, hEP2/Gqs5 (Homo sapiens, UniProt P43116); test: FLIPR calcium signal, hEP2; conditions: FLIPR Ca2+ signal, HEK-293(EBNA); read-out: FUNCTIONAL EC50 HEP2
T5 construct: expressed in transfected cells; host or cells: HEK-293(EBNA)
T5 sequence (P43116 whole entry): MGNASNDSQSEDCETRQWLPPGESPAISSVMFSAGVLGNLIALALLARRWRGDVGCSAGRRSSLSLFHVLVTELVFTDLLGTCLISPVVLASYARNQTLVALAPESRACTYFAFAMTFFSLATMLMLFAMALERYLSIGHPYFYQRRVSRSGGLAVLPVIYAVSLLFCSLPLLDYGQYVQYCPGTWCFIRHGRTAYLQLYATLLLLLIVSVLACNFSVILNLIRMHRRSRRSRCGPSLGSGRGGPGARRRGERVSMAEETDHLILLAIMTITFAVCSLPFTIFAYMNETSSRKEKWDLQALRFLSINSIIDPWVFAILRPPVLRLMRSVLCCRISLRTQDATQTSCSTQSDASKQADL
Outline: as §5

hTP = target: T6, hTP (Homo sapiens, UniProt P21731); test: FLIPR calcium signal, hTP; conditions: FLIPR Ca2+ signal, HEK-293(EBNA); read-out: FUNCTIONAL EC50 HTP
T6 construct: expressed in transfected cells; host or cells: HEK-293(EBNA)
T6 sequence (P21731 1-343): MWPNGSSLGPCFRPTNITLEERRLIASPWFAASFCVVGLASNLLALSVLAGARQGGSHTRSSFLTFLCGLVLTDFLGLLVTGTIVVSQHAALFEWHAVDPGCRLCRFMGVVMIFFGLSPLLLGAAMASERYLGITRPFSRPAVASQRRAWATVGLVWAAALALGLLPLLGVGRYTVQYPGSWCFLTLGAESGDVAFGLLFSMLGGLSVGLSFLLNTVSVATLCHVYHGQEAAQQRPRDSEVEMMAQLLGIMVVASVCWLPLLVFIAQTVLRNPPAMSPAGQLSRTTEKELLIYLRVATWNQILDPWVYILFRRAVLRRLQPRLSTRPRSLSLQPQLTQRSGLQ
Protocol: as §1, §2, §3, §4

hEP1 = target: T7, hEP1 (Homo sapiens, UniProt P34995); test: FLIPR calcium signal, hEP1; conditions: FLIPR Ca2+ signal, HEK-293(EBNA); read-out: FUNCTIONAL EC50 HEP1
T7 construct: expressed in transfected cells; host or cells: HEK-293(EBNA)
T7 sequence (P34995 1-402): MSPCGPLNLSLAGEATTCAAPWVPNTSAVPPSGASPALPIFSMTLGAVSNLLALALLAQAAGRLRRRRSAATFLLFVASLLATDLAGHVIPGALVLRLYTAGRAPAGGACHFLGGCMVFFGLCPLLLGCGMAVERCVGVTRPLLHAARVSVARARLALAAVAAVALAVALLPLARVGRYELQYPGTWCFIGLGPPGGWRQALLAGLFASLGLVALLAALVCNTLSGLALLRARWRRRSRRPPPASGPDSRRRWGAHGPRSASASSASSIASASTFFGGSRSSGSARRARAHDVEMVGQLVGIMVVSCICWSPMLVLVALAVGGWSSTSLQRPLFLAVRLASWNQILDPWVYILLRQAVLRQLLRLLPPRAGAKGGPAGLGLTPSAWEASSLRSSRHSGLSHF
Protocol: as §1, §2, §3, §4

Row | Structure (SMILES) | EC50 (hEP3A/Gqi5) | EC50 (hEP4/Gqs5) | EC50 (hDP/Gqs5) | EC50 (hIP) | EC50 (hEP2/Gqs5) | EC50 (hTP) | EC50 (hEP1)
1 | CCCC1(C(O)c2cccc([C@H]3[C@H](O)CC(=O)[C@@H]3CCCCCCC(=O)OC)c2)CCC1 (stereo partly drawn) | > 10 µM | > 10 µM | > 10 µM | > 10 µM | > 10 µM |  | 
2 | CCCC1(C(O)c2cccc([C@@H]3[C@@H](C/C=C\CCCC(=O)OC)[C@H](Cl)C[C@H]3O)c2)CCC1 (stereo partly drawn) | > 10 µM |  |  |  | > 10 µM | > 10 µM | 
3 | CCCC1(C(O)c2cccc([C@@H]3[C@@H](C/C=C\CCCC(=O)O)[C@H](Cl)C[C@H]3O)c2)CCC1 (stereo partly drawn) | 0.455 µM |  | > 10 µM |  | 0.322 µM | > 10 µM | 
4 | CC(C)(C)c1ccc([C@H]2[C@H](O)CC(=O)[C@@H]2C/C=C\CCCC(=O)O)cc1 |  |  |  |  | 1.71 µM |  | > 10 µM
5 | COC(=O)CCCCCC[C@H]1C(=O)C[C@@H](O)[C@@H]1c1ccc(C(C)(C)C)cc1 | > 10 µM | > 10 µM |  |  | 0.936 µM | > 10 µM | 
6 | CC(C)(C)c1ccc([C@H]2[C@H](O)CC(=O)[C@@H]2CCCCCCC(=O)O)cc1 | 3.39 µM |  |  | > 10 µM | 0.102 µM | 4.27 µM | > 10 µM
7 | CC(C)(C)c1ccc([C@@H]2[C@@H](C/C=C\CCCC(=O)O)[C@H](Cl)C[C@H]2O)cc1 | 2.05 µM | > 10 µM | > 10 µM |  | 0.118 µM | 1.27 µM | > 10 µM
8 | COC(=O)CCCCCC[C@H]1C(=O)C[C@@H](O)[C@@H]1c1ccc2c(c1)CCC2 | > 10 µM | > 10 µM |  |  | > 10 µM | > 10 µM | 
